From patent US10921324B2, “Compositions and methods related to the methylation of histone H1.0 protein” (Aelan Cell Technologies, Inc., priority 2016, dated 2021)
“Also recorded” adds a separate entry of the source. Ends that are not written are not given here. Me2 = dimethylated (lysine)

Tests used:
G9A methyltransferase = test: In vitro methylation of K180me2 H1.0 peptide with G9A, products by LC-MS; assay type: biochemical
Experimental: In order to identify the precise sites of methylation by G9A and GLP methyltransferases on histone H1.0, in vitro methylation assays were performed and subsequently analyzed by Liquid Chromatography and High-resolution Mass Spectrometry (LC-MS) analysis. Methylation reactions were set up using either G9A methyltransferase (NEB, M0235S, Lot #0031201) or GLP methyltransferase (Cayman Chemical, 10755). The methyl donor in each reaction was unlabeled S-Adenosyl-L-Methionine (NEB, B9003S). The H1.0 substrate in each reaction was either unmodified H1.0 peptide labeled with biotin (ThermoFisher Scientific, Biotin-[…] (SEQ ID NO:69)), di-methylated H1.0 peptide (ThermoFisher Scientific, Biotin-[…]^(me2)PK (SEQ ID NO:70)), or full-length recombinant human H1.0 (NEB, M2501S). Methylation reactions were set up in triplicate for each condition as follows: 1×HMT reaction buffer (50 mM Tris-HCl, 5 mM MgCl2, 4 mM dithiothreitol, pH 9.0); 10U G9A or GLP Methyltransferase; 3.2 mM S-Adenosyl-L-Methionine; 500 ng unmodified or modified H1.0 peptide, or 1 μg full-length protein; final volume 10 μl. As controls, reactions were set up as above but without any methyltransferase present. All reactions were incubated in a thermocycler at 37° C. for 1 hour, and subsequently stopped by incubating on ice for 5 minutes. Samples were frozen at −80° C. prior to LC-MS analysis.
(§1) For the Liquid Chromatography and High-resolution Mass Spectrometry (LC-MS) analysis, samples were prepared as described above and about 1 μg o the product was injected onto a Thermo Scientific Easy nLC system configured with a 10 cm×100 um trap column and a 25 cm×100 um ID resolving column. Buffer A was 98% water, 2% methanol, and 0.2% formic acid. […] This ensured optimal full-scan data for quantification. […]
(§2) Protein identification was performed using Thermo Scientific Proteome Discoverer version 1.4 (including Sequest and Percolator algorithms) using RefSeqHuman sequence database. […] Protein quantification was performed using Pinpoint version 1.4 software. The Pinpoint quantification workflow included importing the Proteome Discoverer .msf files as spectral libraries. Identified peptides were subsequently quantified in MS .raw files using the Pinpoint peak finding, chromatographic alignment and area calculation algorithms.
To further address the sensitivity and specificity of G9A methylation to lysine 180 of H1.0 peptide, the K180me2 peptide (H1.0 AA 165-182) was used as a substrate in similar in vitro methylation experiments. Only minor quantitates of further methylated peptide were detected: H1.0K166me1K180me2 (1.27% of the total peptide in the reaction), H1.0K174me1K180me3 (1.06% of the total peptide in the reaction) and H1.0K174me3K175me3K177me1K180me2 (0.35% of the total peptide in the reaction) as shown in FIG. 9B FIG. 10.

GLP methyltransferase = target: T1, GLP methyltransferase (Homo sapiens, UniProt Q9H9B1); test: In vitro methylation of K180 dimethylated H1.0 peptide with GLP, products by LC-MS; assay type: biochemical; conditions: K180 dimethylated H1.0 peptide as substrate, only H1.0K180 and H1.0K174 further methylated
T1 construct: purchased Cayman Chemical 10755
T1 sequence (Q9H9B1 1-1298): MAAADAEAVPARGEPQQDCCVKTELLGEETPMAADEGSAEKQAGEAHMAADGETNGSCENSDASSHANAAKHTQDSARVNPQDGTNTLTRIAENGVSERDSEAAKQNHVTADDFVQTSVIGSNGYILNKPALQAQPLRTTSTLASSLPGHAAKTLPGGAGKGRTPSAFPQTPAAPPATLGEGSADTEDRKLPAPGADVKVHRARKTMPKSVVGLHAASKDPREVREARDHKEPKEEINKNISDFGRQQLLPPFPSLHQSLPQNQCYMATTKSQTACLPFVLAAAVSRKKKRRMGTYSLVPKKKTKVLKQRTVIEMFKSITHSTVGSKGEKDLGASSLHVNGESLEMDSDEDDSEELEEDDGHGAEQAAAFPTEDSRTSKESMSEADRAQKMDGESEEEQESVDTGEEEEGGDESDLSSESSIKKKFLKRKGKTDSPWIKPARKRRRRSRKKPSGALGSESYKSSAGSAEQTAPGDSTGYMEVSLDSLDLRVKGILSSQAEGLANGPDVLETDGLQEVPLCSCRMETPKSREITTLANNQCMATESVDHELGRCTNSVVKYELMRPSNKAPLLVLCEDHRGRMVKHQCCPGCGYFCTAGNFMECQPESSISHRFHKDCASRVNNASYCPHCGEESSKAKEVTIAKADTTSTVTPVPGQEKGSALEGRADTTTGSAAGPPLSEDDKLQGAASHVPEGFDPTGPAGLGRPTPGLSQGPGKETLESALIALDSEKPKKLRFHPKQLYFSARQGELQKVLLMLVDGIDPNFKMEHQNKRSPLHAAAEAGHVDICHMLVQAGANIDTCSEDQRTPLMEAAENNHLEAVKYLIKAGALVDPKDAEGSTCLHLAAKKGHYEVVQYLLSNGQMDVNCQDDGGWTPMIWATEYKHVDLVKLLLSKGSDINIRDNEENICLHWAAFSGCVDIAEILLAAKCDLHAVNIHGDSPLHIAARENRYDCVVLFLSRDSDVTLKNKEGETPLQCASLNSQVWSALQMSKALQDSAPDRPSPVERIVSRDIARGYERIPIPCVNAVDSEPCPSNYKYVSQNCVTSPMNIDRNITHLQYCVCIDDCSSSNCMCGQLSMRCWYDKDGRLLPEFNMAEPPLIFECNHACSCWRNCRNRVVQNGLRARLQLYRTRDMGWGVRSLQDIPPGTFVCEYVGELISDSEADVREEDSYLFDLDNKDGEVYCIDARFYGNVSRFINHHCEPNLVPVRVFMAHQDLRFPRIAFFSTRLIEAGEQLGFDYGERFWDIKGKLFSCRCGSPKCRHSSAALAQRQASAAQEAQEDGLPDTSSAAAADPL
Experimental: In order to identify the precise sites of methylation by G9A and GLP methyltransferases on histone H1.0, in vitro methylation assays were performed and subsequently analyzed by Liquid Chromatography and High-resolution Mass Spectrometry (LC-MS) analysis. Methylation reactions were set up using either G9A methyltransferase (NEB, M0235S, Lot #0031201) or GLP methyltransferase (Cayman Chemical, 10755). The methyl donor in each reaction was unlabeled S-Adenosyl-L-Methionine (NEB, B9003S). […]
as §1, with “column.” for “column. Buffer A was 98% water, 2% methanol, and 0.2% formic acid.”
as §2, with “algorithms. […]” for “algorithms.”

[1] = system: chromatin bound H1.0 in hADSCs; test: LC-MS/MS of soluble and chromatin bound fractions of hADSCs after bleomycin; assay type: cell-based, human
Experimental: (§3) For replicative senescence, hADSCs were grown in culture until reaching replicative exhaustion (PD 41-46). For acute DNA damage conditions, SR hADSCs (PD 4-10) were treated with 50μg/ml bloemycin sulfate (Cayman Chemical, 13877) in growth media for 2 hours. For genotoxic stress induced senescence, SR hADSCs (PD 4-10) were treated with 50 μg/ml bloemycin sulfate (Cayman Chemical, 13877) in growth media for 2 hours then washed with PBS and given fresh growth media without bleomycin. Cells were then grown for 3 days before collection.
SR hADSCs, hADSCs treated with bleomycin for 2 hours (acute DNA damage) and hADSCs treated with bleomycin and allowed to senesce for 3 days (genotoxic stress induced senescence) were lysed and fractionated into soluble and chromatin bound fractions. These fractions were then subjected to LC-MS/MS analysis. Peptide expression levels were taken as the total area under the LC-MS/MS relative intensity curve, and individual peptides were unambiguously assigned to proteins using Pinpoint software, version 1.4 (Thermo Scientific). The areas of all peptides assigned to an individual protein were summed to yield protein expression levels, which were normalized against the total protein library size for each sample. For each cellular fraction, H1.0 peptide abundance is represented as a percentage of total H1.0 peptides observed in each condition. […]

H1.0K180me2 in hADSCs = test: Western blot / localization of H1.0K180me2 in hADSCs after bleomycin (acute DNA damage); assay type: cell-based, human
Experimental: as §3
(§4) Material for western blot analysis (cultured cells or tissue) was lysed in ice-cold RIPA lysis buffer (Thermo Scientific 89900) and sonicated using a Covaris S2 sonicator (10% duty cycle, Intensity 5, Bursts per minute 100, 120 seconds). Total protein concentration in each sample was quantified using Quick Start Bradford 1× Dye Reagent (BioRad, 5000205) following manufacturer's protocol. Samples were then mixed with NuPAGE LDS sample loading buffer (ThermoFisher, NP0007) and NuPAGE sample reducing buffer (ThermoFisher, NP0004), and heat denatured at 70° C. for 10 minutes. […] Proteins were detected with HRP secondary antibodies listed above for 1 hour at RT followed by ECL Western Blotting Substrate (ThermoFisher, 32106) using manufacturer's instructions. […]

[2] = system: secretion of H1.0K180me2 from hADSCs; test: Slot blot of culture media of hADSCs treated with bleomycin; assay type: cell-based, human
Experimental: 0.5 μl of serum sample or known amounts of synthesized peptide were diluted in 200 μl TBS. Samples were then heat denatured at 70° C. for 10 minutes before being transferred to nitrocellulose membrane using a vacuum manifold slot blot apparatus (BioRad, 1706542). The membrane was blocked with 5% non-fat milk in PBS-T for 30 minutes at RT then immunoblotted with the above primary antibodies at 4° C. over night. Proteins were detected with HRP secondary antibodies listed above for 1 hour at RT followed by ECL Western Blotting Substrate (ThermoFisher, 32106) using manufacturers instructions. All washes between steps were with PBS-T. Membranes were imaged with Omega LUM-C imaging system (Gel Company). Slot blot bands for each sample were then quantified using ImageJ.
SR hADSCs, hADSCs treated with bleomycin for 2 hours (acute DNA damage) and hADSCs treated with bleomycin and allowed to senesce for 3 days (genotoxic stress induced senescence) were lysed and fractionated into soluble and chromatin bound fractions. These fractions were then subjected to LC-MS/MS analysis. Peptide expression levels were taken as the total area under the LC-MS/MS relative intensity curve, and individual peptides were unambiguously assigned to proteins using Pinpoint software, version 1.4 (Thermo Scientific). The areas of all peptides assigned to an individual protein were summed to yield protein expression levels, which were normalized against the total protein library size for each sample. For each cellular fraction, H1.0 peptide abundance is represented as a percentage of total H1.0 peptides observed in each condition. Normalized absolute values of H1.0 peptide levels in each fraction were also shown. […] Culture media from SR hADSCs treated with bleomycin was collected for slot blot analysis with α-H1.0 and α-H1.0K180me2 antibodies to assess secretion of H1.0 to the extracellular matrix (ECM). The experiment was carried out according to methods described in Example 1. […] This signifies secretion out of the cells.

[3] = system: H1.0K180me2 appearance in SR hADSCs; test: Western blot of H1.0K180me2 in hADSCs treated with bleomycin after rapamycin or everolimus pretreatment; assay type: cell-based, human; conditions: 500 nM pretreatment for 24 hours, then bleomycin 2 hours
Text: as §4, with “minutes. Proteins were separated on 4-12% precast polyacrylamide gels (ThermoFisher, NP0321) by electrophoresis and transferred to 0.45 μm nitrocellulose membrane.” for “minutes.”
To test if rapamycin derivatives can block H1.0K180me2 appearance upon DNA damage, SR hADSCs were treated with bleomycin for 2 hours with or without pretreatment with rapamycin or everolimus (a derivative of rapamycin) for 24 hours. Cells were then lysed and analyzed be western blot for H1.0K180me2, γH2A.X and β-Actin, according to methods described in Example 1.

[4] = K180me2 peptide (H1.0 AA 165-182) as substrate

G9A methyltransferase, sequence (Q9Z148 969-1263 limits assumed): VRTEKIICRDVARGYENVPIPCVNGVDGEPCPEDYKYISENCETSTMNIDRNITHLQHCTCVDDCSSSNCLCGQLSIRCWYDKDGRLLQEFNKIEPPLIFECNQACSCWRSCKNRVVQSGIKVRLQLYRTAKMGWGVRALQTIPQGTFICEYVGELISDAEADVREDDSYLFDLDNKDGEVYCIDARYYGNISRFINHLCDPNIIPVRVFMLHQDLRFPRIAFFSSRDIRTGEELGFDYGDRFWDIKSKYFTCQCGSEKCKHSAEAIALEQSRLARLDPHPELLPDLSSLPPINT

Molecule: AKPVKASKPKKAKPVK(me2)PK (chain 1 AKPVKASKPKKAKPVK(Me2)PK; chain 2 AKPVKASKPKKAKPVK(Me2)PK; not fully specified (N-terminus)) [K180 dimethylated H1.0 peptide, H1.0 AA 165-182 peptide dimethylated at K180]
- H1.0K166me1K180me2, % of the total peptide in the reaction (G9A methyltransferase; [4]): 1.27%
- H1.0K174me1K180me3, % of the total peptide in the reaction (G9A methyltransferase; [4]): 1.06%
- H1.0K174me3K175me3K177me1K180me2, % of the total peptide in the reaction (G9A methyltransferase; [4]): 0.35%
- peptides further methylated (G9A methyltransferase; dimethylated H1.0 peptide as substrate): 2.64%
- peptides further methylated (GLP methyltransferase): 1.02%

Molecule: bleomycin
- chromatin bound H1.0, % of total ([1]; acute DNA damage (bleomycin 2 hours)): ~60%
- chromatin bound H1.0, % of total ([1]; genotoxic stress induced senescence (bleomycin 2 hours, then 3 days)): ~30%
- localization of H1.0K180me2 (H1.0K180me2 in hADSCs; SR hADSCs treated with bleomycin): H1.0K180me2 localized to the cytoplasm
- H1.0K180me2 on chromatin (H1.0K180me2 in hADSCs; bleomycin 50 μg/ml 2 hours, chromatin bound fraction, western blot): methylation of H1.0K180 on the chromatin upon DNA damage; also recorded: H1.0K180me2 is found on chromatin
- secreted H1.0K180me2 in cell culture media ([2]; after 24 hours of bleomycin treatment): secreted H1.0K180me2 was also readily detected
- time of maximal H1.0K180me2 secretion ([2]; conditioned medium, time course after bleomycin): ≤ 48 h
- DFFB secretion ([2]; upon GSI-SEN, starting 48 hours after treatment): increase in DFFB secretion

Molecule: CO[C@H]1C[C@@H]2CC[C@@H](C)[C@@](O)(O2)C(=O)C(=O)N2CCCC[C@H]2C(=O)O[C@H]([C@H](C)C[C@@H]2CC[C@@H](OCCO)[C@H](OC)C2)CC(=O)[C@H](C)/C=C(\C)[C@@H](O)[C@@H](OC)C(=O)[C@H](C)C[C@H](C)/C=C/C=C/C=C/1C [everolimus]
- appearance of H1.0K180me2 upon bleomycin treatment [3]: blocks H1.0K180me2 deposition on chromatin; also recorded: blocks H1.0K180me2 appearance
